Data published in ChEMBL document CHEMBL1201862, “PubChem BioAssay data set” (2004).
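Where inhibition never reached the appropriate level, the endpoint shown equals the highest concentration tested. Otherwise, values were interpolated linearly from a five-concentration, 48-hour dose response in 96-well plates. GI50 = concentration required for 50% inhibition of growth.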 Active and inactive are the calls of the source. No stated cut-off is given here; in the data, active = GI50 up to about 1.1 µM and inactive = higher.

Experiments:
Assay in all cases: DTP human tumour cell line panel, 48 h
Malme-3M = test system: Malme-3M
NCI-H522 = test system: NCI-H522
HOP-92 = test system: HOP-92
DMS-114 = test system: DMS-114
OVCAR-5 = test system: OVCAR-5
KM-20L2 = test system: KM-20L2
OVCAR-4 = test system: OVCAR-4
NCI-H460 = test system: NCI-H460
EKVX = test system: EKVX
DU-145 = test system: DU-145
OVCAR-3 = test system: OVCAR-3
KM12 = test system: KM12
786-0 = test system: 786-0
PC-3 = test system: PC-3
DLD-1 = test system: DLD-1
OVCAR-8 = test system: OVCAR-8
NCI-H226 = test system: NCI-H226
SK-OV-3 = test system: SK-OV-3
U-251 = test system: U-251
A498 = test system: A498
MDA-MB-231 = test system: MDA-MB-231
SW-620 = test system: SW-620
BT-549 = test system: BT-549
SF-268 = test system: SF-268
M19-MEL = test system: M19-MEL
HOP-62 = test system: HOP-62
RXF 393 = test system: RXF 393
COLO 205 = test system: COLO 205
UO-31 = test system: UO-31
A549 = test system: A549
MOLT-4 = test system: MOLT-4
CAKI-1 = test system: CAKI-1
CCRF-CEM = test system: CCRF-CEM
SN12C = test system: SN12C
SNB-78 = test system: SNB-78
MDA-N = test system: MDA-N
SNB-75 = test system: SNB-75
ACHN = test system: ACHN
HL-60 = test system: HL-60
NCI/ADR-RES = test system: NCI/ADR-RES
NCI-H23 = test system: NCI-H23
SNB-19 = test system: SNB-19
DMS-273 = test system: DMS-273
SK-MEL-28 = test system: SK-MEL-28
UACC-257 = test system: UACC-257
K562 = test system: K562
SK-MEL-2 = test system: SK-MEL-2
HOP-18 = test system: HOP-18
MDA-MB-435 = test system: MDA-MB-435
UACC-62 = test system: UACC-62
HCT-116 = test system: HCT-116
SF-295 = test system: SF-295
SK-MEL-5 = test system: SK-MEL-5
T47D = test system: T47D
SR = test system: SR
RPMI-8226 = test system: RPMI-8226
LOX IMVI = test system: LOX IMVI
RXF 631 = test system: RXF 631
HCC 2998 = test system: HCC 2998
M14 = test system: M14
HT-29 = test system: HT-29
MCF7 = test system: MCF7
TK-10 = test system: TK-10
SF-539 = test system: SF-539
Hs-578T = test system: Hs-578T
XF498 = test system: XF498
LXFL 529 = test system: LXFL 529
HCT-15 = test system: HCT-15
IGROV-1 = test system: IGROV-1

With `CCOC(=O)CN1C(=O)c2cc([N+](=O)[O-])cc3cc([N+](=O)[O-])cc(c23)C1=O` the GI50 (Malme-3M) was 43.5 µM (inactive), the GI50 (NCI-H522) was 4.21 µM (inactive) and the GI50 (HOP-92) was > 77.8 µM (inactive). For the same compound, the GI50 (DMS-114) was 57.7 µM (inactive), the GI50 (OVCAR-5) was > 100 µM (inactive) and the GI50 (KM-20L2) was 50.8 µM (inactive). For the same compound, the GI50 (OVCAR-4) was > 100 µM (inactive), the GI50 (NCI-H460) was 73.6 µM (inactive) and the GI50 (EKVX) was > 100 µM (inactive). The GI50 (DU-145) was > 25.3 µM (inactive), the GI50 (OVCAR-3) was 23.2 µM (inactive) and the GI50 (KM12) was > 100 µM (inactive). For the same compound, the GI50 (786-0) was 48.8 µM (inactive), the GI50 (PC-3) was > 100 µM (inactive) and the GI50 (DLD-1) was 5.86 µM (inactive). For the same compound, the GI50 (OVCAR-8) was 27.9 µM (inactive), the GI50 (NCI-H226) was 45.4 µM (inactive) and the GI50 (SK-OV-3) was > 95.7 µM (inactive). For the same compound, the GI50 (U-251) was > 88.5 µM (inactive), the GI50 (A498) was > 100 µM (inactive) and the GI50 (MDA-MB-231) was 45.4 µM (inactive). For the same compound, the GI50 (SW-620) was 68.5 µM (inactive), the GI50 (BT-549) was > 28.6 µM (inactive) and the GI50 (SF-268) was 18.4 µM (inactive). The GI50 (M19-MEL) was 30.1 µM (inactive), the GI50 (HOP-62) was > 100 µM (inactive) and the GI50 (RXF 393) was 11.9 µM (inactive). The GI50 (COLO 205) was 24.7 µM (inactive), the GI50 (UO-31) was 28.7 µM (inactive) and the GI50 (A549) was > 100 µM (inactive). For the same compound, the GI50 (MOLT-4) was 3.56 µM (inactive), the GI50 (CAKI-1) was 30.5 µM (inactive) and the GI50 (CCRF-CEM) was 1.41 µM (inactive). The GI50 (SN12C) was 14.7 µM (inactive), the GI50 (SNB-78) was 4.2 µM (inactive) and the GI50 (MDA-N) was 11 µM (inactive). The GI50 (SNB-75) was 84.3 µM (inactive), the GI50 (ACHN) was 40 µM (inactive) and the GI50 (HL-60) was 1.71 µM (inactive). The GI50 (NCI/ADR-RES) was > 80.4 µM (inactive), the GI50 (NCI-H23) was 99.3 µM (inactive) and the GI50 (SNB-19) was > 83.4 µM (inactive). For the same compound, the GI50 (DMS-273) was > 100 µM (inactive), the GI50 (SK-MEL-28) was 49.3 µM (inactive) and the GI50 (UACC-257) was 73.8 µM (inactive). For the same compound, the GI50 (K562) was 5.13 µM (inactive), the GI50 (SK-MEL-2) was 22.5 µM (inactive) and the GI50 (HOP-18) was > 100 µM (inactive). The GI50 (MDA-MB-435) was 13.8 µM (inactive), the GI50 (UACC-62) was 22.8 µM (inactive) and the GI50 (HCT-116) was 15 µM (inactive). The GI50 (SF-295) was 72.3 µM (inactive), the GI50 (SK-MEL-5) was 27.3 µM (inactive) and the GI50 (T47D) was > 100 µM (inactive). For the same compound, the GI50 (SR) was 1.45 µM (inactive), the GI50 (RPMI-8226) was 19.6 µM (inactive) and the GI50 (LOX IMVI) was 4.1 µM (inactive). The GI50 (RXF 631) was 50.7 µM (inactive), the GI50 (HCC 2998) was > 100 µM (inactive) and the GI50 (M14) was 24.7 µM (inactive). For the same compound, the GI50 (HT-29) was 34.7 µM (inactive), the GI50 (MCF7) was > 84.7 µM (inactive) and the GI50 (TK-10) was > 100 µM (inactive). For the same compound, the GI50 (SF-539) was 20 µM (inactive), the GI50 (Hs-578T) was > 100 µM (inactive) and the GI50 (XF498) was > 100 µM (inactive). The GI50 (LXFL 529) was 12.3 µM (inactive), the GI50 (HCT-15) was 17.3 µM and the GI50 (IGROV-1) was > 66.1 µM (inactive).
